For this assay, the system named is CEM cells HIV-1 protection, formazan growth assay. Put plainly: NCI AIDS Antiviral Assay. To be noted: for IC50: measured here: growth of uninfected CEM cells. A digest of the protocol:
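Category rules: moderately active means at least 50% protection on retest, and confirmed active means 100% protection reproducibly. The underlying data came from a formazan growth assay in HIV-1-infected CEM cells.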

Structures are written as SMILES. Calls of active or inactive are those of the source.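 Rule for the calls: active = compounds giving half or more protection of infected cells from virus-caused growth loss, again on retest; inactive = the rest.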 Bounds are passed on as bounds.

By EC50 is commonly meant the concentration giving half of the maximal effect. For orientation: IC50 means the point on the concentration scale where inhibition reaches its midpoint. Low values mean higher potency, high ones lower potency. In the case of `CC1(C)C(=O)C(C(Cl)(Cl)Cl)=C(Cl)C(=O)C1(Cl)Cl`, the EC50 is above 200 µM and the half-maximal inhibitory concentration (IC50) was 25.7 µM.

Regarding `COC(=O)c1ccc(CSc2ccccc2)cc1`, the EC50 was above 28.2 µM and the IC50 is above 28.2 µM.

As for `CCN(CC)c1c(C)nnc2c3c(-c4ccccc4)c(-c4ccccc4)nnc3nn12`, the EC50 was above 200 µM and the IC50 is above 200 µM.

Consider `CC(C)(C)OC(=O)NC1CCCC1=O` (stereo unspecified), for which the result was inactive.

On to `Cc1c(N)c(C#N)c2n(C)c3ncccc3n2c1=O`, for which the EC50 was above 200 µM and the IC50 was above 200 µM.

In the case of `CC(C)c1cccc(C(C)C)c1NC(=O)C(=O)CC(=O)CC(c1ccccc1)c1c(O)c2ccccc2oc1=O` (stereo unspecified), the EC50 is above 468 µM and the half-maximal inhibitory concentration (IC50) is 229 µM.

`CC1=C(C(=O)Nc2ccccc2C)C(c2ccco2)C(C(=O)Nc2ccccc2C)=C(C)N1C`: the EC50 is above 21.9 µM and the IC50 is above 21.9 µM.

Regarding `O=C1c2ccccc2-c2nnc3c(c21)-c1ccccc1C3`, the EC50 is above 200 µM and the half-inhibitory concentration (IC50) is 93.3 µM.

For `COC(=O)C(C(=O)C(=O)Nc1c(C)cccc1C(C)(C)C)c1nc2ccc(Cl)cc2[nH]c1=O` (stereo unspecified), the EC50 was above 55 µM and the IC50 is above 55 µM.

Consider `COc1ccccc1C(=O)N(Cc1ccccc1)c1ccc(Cl)c(C(=O)OC(C)C)c1`, for which the EC50 was above 19.5 µM and the concentration for half-maximal inhibition (IC50) came out at 15.5 µM.

As for `CC(=O)OCc1cc(-c2nc3ccccc3[nH]c2=O)nn1-c1ccc(Cl)cc1`, the EC50 is above 200 µM and the IC50 is above 200 µM.

For `O=C(Nc1cc(C(=O)Nc2cccc(S(=O)(=O)O)c2)cc(C(=O)Nc2cccc(S(=O)(=O)O)c2)c1)c1cccc(C(=O)Nc2cc(C(=O)Nc3cccc(S(=O)(=O)O)c3)cc(C(=O)Nc3cccc(S(=O)(=O)O)c3)c2)c1`, the concentration giving a half-maximal response (EC50) was 97.7 µM and the IC50 was above 100 µM.

On to `COC(=O)[C@@]12CCCC(=O)[C@@H]1[C@H]1CCC[C@H]12`, for which the EC50 is 112 µM and the IC50 was above 200 µM.

On to `CCOC(=O)c1ccc(N=c2sc3ccccc3nc2Nc2ccc(C(=O)OCC)cc2)cc1`, for which the EC50 was above 200 µM and the IC50 is above 200 µM.

In the case of `CC(=O)NC(CCCNC(=O)N(C)N=O)C(=O)NCc1ccccc1` (stereo unspecified), the EC50 was above 708 µM and the concentration for half-maximal inhibition (IC50) is above 708 µM.

Turning to `CC1(C)C2CCC1(C)C(O)(c1ccccc1)C2=O` (stereo unspecified), the EC50 is above 91.2 µM and the concentration for half-maximal inhibition (IC50) was above 91.2 µM.

Consider `C=C(C)C(=O)OC1C[C@H](COC(C)=O)C2CC=C(CO)C2C2OC(=O)C(=C)[C@H]12` (stereo partly specified), for which the EC50 is above 200 µM and the IC50 was determined as 9.12 µM.

As for `O=c1c2cccnc2ncn1CCN1CCCCC1`, the result was inactive.

On to `COC1CCC(CO)OO1` (stereo unspecified), for which the EC50 is above 200 µM and the IC50 stood at 3.09 µM.

In the case of `COc1c(-c2cccs2)oc2c(CC(=O)O)cccc2c1=O`, the EC50 is above 200 µM and the half-inhibitory concentration (IC50) worked out at 91.2 µM.

For `Oc1ccc(/C=C/c2cc(O)cc3c2[C@@H](c2cc(O)cc(O)c2)C(c2ccc(O)cc2)O3)cc1` (stereo partly specified), the EC50 was above 31.6 µM and the IC50 was 16.6 µM.

As to `O=C1COc2cc3c(cc2N1)SCCC(=O)N3`, the EC50 is above 39.8 µM and the half-inhibitory concentration (IC50) was above 39.8 µM.

In the case of `COc1ccc(S(=O)(=O)Cc2ccc(C(=O)O)cc2[N+](=O)[O-])cc1`, the EC50 was above 708 µM and the concentration for half-maximal inhibition (IC50) was determined as 646 µM.

Take `O=S1(=O)C[C@@H](NCc2ccccc2)[C@H](NCc2ccccc2)C1`: the EC50 is above 200 µM and the half-maximal inhibitory concentration (IC50) was above 200 µM.

`Nc1ncnc2c1ccn2CC=C(CO)CO`: the EC50 is above 200 µM and the IC50 is above 200 µM.

In the case of `CCC1=NC(C(F)(F)F)(C(F)(F)F)N=C(/N=C(/N)N(C)C(C(C)C)P(=O)(OC(C)C)OC(C)C)O1` (stereo unspecified), the EC50 is above 200 µM and the IC50 is above 200 µM.

As for `COC1C2c3cc4c(cc3CC(C#N)(c3ccccc32)N1C(=O)c1ccccc1)OCO4` (stereo unspecified), the result was inactive.
